Literature values as cited in US6911441B2, “Prolonged release pharmaceutical composition” (Akzo Nobel N.V., priority 2002, dated 2005).
Values after ≈ are worked out from the molar mass of the structure shown.

System: Mannheimia haemolytica

SMILES: CO/N=C(\C(=O)N[C@@H]1C(=O)N2C(C(=O)[O-])=C(C[n+]3cccc4c3CCCC4)CS[C@H]12)c1csc(N)n1 [Cefquinome]
- MIC90: 0.25 µg/mL (≈ 0.473 µM)
